In the Kinase Knowledgebase extract (Sharma et al. 2016) one finds IC50 data, which are given here for 57 compounds.

SMILES strings stand for the structures. A value given as a limit tells only on which side of the number the result lay.

The target of the assay is MAPK14 (human) (UniProt Q16539). Briefly: Enzyme Assay.
MAPK14 (human), sequence (Q16539 whole entry, looked up): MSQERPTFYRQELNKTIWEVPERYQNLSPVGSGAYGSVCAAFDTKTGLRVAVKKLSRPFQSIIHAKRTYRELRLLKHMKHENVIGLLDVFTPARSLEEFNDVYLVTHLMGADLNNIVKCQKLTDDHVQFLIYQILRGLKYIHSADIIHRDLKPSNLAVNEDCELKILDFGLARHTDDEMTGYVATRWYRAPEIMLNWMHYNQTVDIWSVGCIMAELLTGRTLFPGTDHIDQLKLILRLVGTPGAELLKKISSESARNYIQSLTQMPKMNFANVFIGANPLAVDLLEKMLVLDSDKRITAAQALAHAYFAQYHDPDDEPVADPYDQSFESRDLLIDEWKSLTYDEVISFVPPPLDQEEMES

The IC50 is the concentration that gives 50% inhibition. A low value points to inhibition by little substance. As for `CC(C)(C)c1cc(NC(=O)N[C@H]2CC[C@@H](Oc3ccc4nnc(N5CCCCC5)n4c3)c3ccccc32)n(-c2cccc(CN3CCC(O)CC3)c2)n1`, the half-inhibitory concentration (IC50) is less than 10 nM.

`Cc1ccc(-n2nc(C(C)(C)C)cc2NC(=O)N[C@H]2CC[C@@H](Oc3ccc4nnc(N(C)C)n4c3)c3ccccc32)cc1` had an IC50 of less than 10 nM.

Compound `COCCN(C)Cc1ccc(-n2nc(C(C)(C)C)cc2NC(=O)N[C@H]2CC[C@@H](Oc3ccc4nnc(N5CCCC[C@@H]5C)n4c3)c3ccccc32)cc1` came in with a half-maximal inhibitory concentration (IC50) of less than 10 nM. Next, `Cc1ccc(-n2nc(C(C)(C)C)cc2NC(=O)N[C@H]2CC[C@@H](Oc3ccc4nnc(N5CCC(O)CC5)n4c3)c3ccccc32)cc1`: less than 10 nM; `CN1CCN(Cc2cccc(-n3nc(C(C)(C)C)cc3NC(=O)N[C@H]3CC[C@@H](Oc4ccc5nnc(N6CCCCC6)n5c4)c4ccccc43)c2)CC1`: less than 10 nM. The value for `Cc1ccc(-n2nc(C(C)(C)C)cc2NC(=O)N[C@H]2CC[C@@H](Oc3ccc4nnc(N(C)CCN(C)C)n4c3)c3ccccc32)cc1` was less than 10 nM; that for `C[C@H]1CCCCN1c1nnc2ccc(O[C@@H]3CC[C@H](NC(=O)Nc4cc(C(C)(C)C)nn4CCN(C)C)c4ccccc43)cn12` was less than 10 nM; that for `C[C@H]1CCCCN1c1nnc2ccc(O[C@@H]3CC[C@H](NC(=O)Nc4cc(C(C)(C)C)nn4CCN4CCN(C)CC4)c4ccccc43)cn12` was less than 10 nM.

`C[C@H]1CCCCN1c1nnc2ccc(O[C@@H]3CC[C@H](NC(=O)Nc4cc(C(C)(C)C)nn4-c4cccc(OCCN5C6CCC5COC6)c4)c4ccccc43)cn12`: the IC50 is less than 10 nM. The value for `CC(C)(C)c1cc(NC(=O)N[C@H]2CC[C@@H](Oc3ccc4nnc(N5CCCCC5)n4c3)c3ccccc32)n(-c2ccc(CO)cc2)n1` was less than 10 nM; that for `Cc1ccc(-n2nc(C(C)(C)C)cc2NC(=O)N[C@H]2CC[C@@H](Oc3ccc4nnc(N5CCC[C@@H]5CO)n4c3)c3ccccc32)cc1` was less than 10 nM. The value for `Cc1ccc(-n2nc(C(C)(C)C)cc2NC(=O)N[C@H]2CC[C@@H](Oc3ccc(C#N)nc3)c3ccccc32)cc1` was less than 10 nM; that for `CN(C)CCOc1cccc(-n2nc(C(C)(C)C)cc2NC(=O)N[C@H]2CC[C@@H](Oc3ccc4nnc(N5CCCCC5)n4c3)c3ccccc32)c1` was less than 10 nM.

In turn, `CCN(CC)CCOc1cccc(-n2nc(C(C)(C)C)cc2NC(=O)N[C@H]2CC[C@@H](Oc3ccc4nnc(N5CCCC[C@@H]5C)n4c3)c3ccccc32)c1` gave a half-maximal inhibitory concentration (IC50) of less than 10 nM. The value for `C[C@@H]1CCC[C@H](C)N1c1nnc2ccc(O[C@@H]3CC[C@H](NC(=O)Nc4cc(C(C)(C)C)nn4CCN4CCOCC4)c4ccccc43)cn12` was less than 10 nM; that for `Cc1ccc(-n2nc(C(C)(C)C)cc2NC(=O)N[C@H]2CC[C@@H](Oc3ccc4nnc(N5CCC(C(C)(C)O)CC5)n4c3)c3ccccc32)cc1` was less than 10 nM. Next, `C[C@H]1CCCCN1c1nnc2ccc(O[C@@H]3CC[C@H](NC(=O)Nc4cc(C(C)(C)C)nn4-c4cccc(CCN5CCCOCC5)c4)c4ccccc43)cn12`: less than 10 nM. Next, `CCN(C)Cc1ccc(-n2nc(C(C)(C)C)cc2NC(=O)N[C@H]2CC[C@@H](Oc3ccc4nnc(N5CCCC[C@@H]5C)n4c3)c3ccccc32)cc1`: less than 10 nM; `Cc1ccc(-n2nc(C(C)(C)C)cc2NC(=O)N[C@H]2CC[C@@H](Oc3ccc4nnc([C@]5(C)CCCN5C)n4c3)c3ccccc32)cc1`: less than 10 nM. Compound `Cc1ccc(-n2nc(C(C)(C)C)cc2NC(=O)N[C@H]2CC[C@@H](Oc3ccc4nnc([C@@H](C)N5CCOCC5)n4c3)c3ccccc32)cc1.Cc1ccc(-n2nc(C(C)(C)C)cc2NC(=O)N[C@H]2CC[C@@H](Oc3ccc4nnc([C@H](C)N5CCOCC5)n4c3)c3ccccc32)cc1` had an IC50 of less than 10 nM.

The compound `Cc1ccc(-n2nc(C(C)(C)C)cc2NC(=O)N[C@H]2CC[C@@H](Oc3ccc4nnc(N5CCCC5)n4c3)c3ccccc32)cc1` yielded an IC50 of less than 10 nM. The value for `Cc1ccc(-n2nc(C(C)(C)C)cc2NC(=O)N[C@H]2CC[C@H](Oc3ccc4nnc(N5CCCCC5)n4c3)c3ccccc32)cc1` was less than 10 nM. The value for `Cc1ccc(-n2nc(C(C)(C)C)cc2NC(=O)N[C@H]2CC[C@@H](Oc3ccc4nnc(N5CCCCC5)n4c3)c3ccccc32)cn1` was less than 10 nM; that for `Cc1ccc(-n2nc(C(C)(C)C)cc2NC(=O)N[C@H]2CC[C@@H](Oc3ccc4nnc([C@@H]5CCCN(C)C5)n4c3)c3ccccc32)cc1` was less than 10 nM. The value for `Cc1ccc(-n2nc(C(C)(C)C)cc2NC(=O)N[C@H]2CC[C@@H](Oc3ccc4nnc(N5CCCCCC5)n4c3)c3ccccc32)cc1` was less than 10 nM; that for `COC1CCN(CCOc2cccc(-n3nc(C(C)(C)C)cc3NC(=O)N[C@H]3CC[C@@H](Oc4ccc5nnc(N6CCCC[C@@H]6C)n5c4)c4ccccc43)c2)CC1` was less than 10 nM. Take `C[C@H]1CCCCN1c1nnc2ccc(O[C@@H]3CC[C@H](NC(=O)Nc4cc(C(C)(C)C)nn4-c4cccc(CCN(C)C)c4)c4ccccc43)cn12`: the IC50 was less than 10 nM. Next, `C[C@H]1CCCCN1c1nnc2ccc(O[C@@H]3CC[C@H](NC(=O)Nc4cc(C(C)(C)C)nn4-c4cccc(OCCN(C)C)c4)c4ccccc43)cn12`: less than 10 nM; `Cc1ccc(-n2nc(C(C)(C)C)cc2NC(=O)N[C@H]2CC[C@@H](Oc3ccc4nnc(-c5ccc(CN6CCOCC6)cc5)n4c3)c3ccccc32)cc1`: less than 10 nM; `C[C@H]1CCCCN1c1nnc2ccc(O[C@@H]3CC[C@H](NC(=O)Nc4cc(C(C)(C)C)on4)c4ccccc43)cn12`: less than 10 nM. In turn, `Cc1ccc(-n2nc(C(C)(C)C)cc2NC(=O)N[C@H]2CC[C@@H](Oc3ccc4nnc(N(C)CCO)n4c3)c3ccccc32)cc1` displayed an IC50 of less than 10 nM. The value for `Cc1ccc(-n2nc(C(C)(C)C)cc2NC(=O)N[C@H]2CC[C@@H](Oc3ccc4nnc(N5CCN(CCO)CC5)n4c3)c3ccccc32)cc1` was less than 10 nM; that for `C[C@H]1CCCCN1c1nnc2ccc(O[C@@H]3CC[C@H](NC(=O)Nc4cc(C(C)(C)C)nn4-c4cccc(CCN5CCOCC5)c4)c4ccccc43)cn12` was less than 10 nM. Turning to `Cc1ccc(-n2nc(C(C)(C)C)cc2NC(=O)N[C@H]2CC[C@@H](Oc3ccc4nnc(-c5cccc(CN6CCOCC6)c5)n4c3)c3ccccc32)cc1`, the IC50 was less than 10 nM. The value for `Cc1ccc(-n2nc(C(C)(C)C)cc2NC(=O)N[C@H]2CC[C@@H](Oc3ccc4nnc([C@@H]5CCCN5C(C)C)n4c3)c3ccccc32)cc1` was less than 10 nM; that for `C[C@H]1CCCCN1c1nnc2ccc(O[C@@H]3CC[C@H](NC(=O)Nc4cc(C(C)(C)C)nn4-c4cccc(OCCN5CCOCC5)c4)c4ccccc43)cn12` was less than 10 nM. Next, `Cc1ccc(-n2nc(C(C)(C)C)cc2NC(=O)N[C@H]2CC[C@@H](Oc3ccc4nnc([C@H]5COCCN5C)n4c3)c3ccccc32)cc1`: less than 10 nM; `CC(C)(C)c1cc(NC(=O)N[C@H]2CC[C@@H](Oc3ccc4nnc(N5CCCCC5)n4c3)c3ccccc32)n(-c2cccc(CN3CCCCC3)c2)n1`: less than 10 nM. `C[C@@H]1CCCCN1c1nnc2ccc(O[C@@H]3CC[C@H](NC(=O)Nc4cc(C(C)(C)C)nn4-c4cccc(OCCN(C)C)c4)c4ccccc43)cn12` showed an IC50 of less than 10 nM. The value for `CN1CCC[C@H]1c1nnc2ccc(O[C@@H]3CC[C@H](NC(=O)Nc4cc(C(C)(C)C)nn4-c4cccc(CO)c4)c4ccccc43)cn12` was less than 10 nM. The value for `Cc1ccc(-n2nc(C(C)(C)C)cc2NC(=O)N[C@H]2CC[C@@H](Oc3ccc4nnc(N5CCC(CCO)CC5)n4c3)c3ccccc32)cc1` was less than 10 nM. Next, `CC(C)N(c1nnc2ccc(O[C@@H]3CC[C@H](NC(=O)Nc4cc(C(C)(C)C)nn4-c4cccc(OCCN(C)C)c4)c4ccccc43)cn12)C(C)C`: less than 10 nM.

As to `C[C@H]1CCCCN1c1nnc2ccc(O[C@@H]3CC[C@H](NC(=O)Nc4cc(C(C)(C)C)nn4-c4cccc(CN(C)C)c4)c4ccccc43)cn12`, the IC50 is less than 10 nM. The value for `CN(C)CCn1cc(-n2nc(C(C)(C)C)cc2NC(=O)N[C@H]2CC[C@@H](Oc3ccc4nnc(N5CCCCC5)n4c3)c3ccccc32)cn1` was less than 10 nM; that for `COCC(=O)Nc1cc(O[C@@H]2CC[C@H](NC(=O)Nc3cc(C(C)(C)C)nn3-c3ccc(C)cc3)c3ccccc32)ccn1` was less than 10 nM; that for `Cc1ccc(-n2nc(C(C)(C)C)cc2NC(=O)N[C@H]2CC[C@@H](Oc3ccc4nnc([C@@H]5CCCN5)n4c3)c3ccccc32)cc1` was less than 10 nM. The value for `C[C@H]1CCCCN1c1nnc2ccc(O[C@@H]3CC[C@H](NC(=O)Nc4cc(C(C)(C)C)nn4-c4cccc(OCCN5CCCCC5)c4)c4ccccc43)cn12` was less than 10 nM; that for `C[C@H]1CCCCN1c1nnc2ccc(O[C@@H]3CC[C@H](NC(=O)Nc4cc(C(C)(C)C)nn4CCN4CCCCC4)c4ccccc43)cn12` was less than 10 nM.

`C[C@@H]1CCC[C@H](C)N1c1nnc2ccc(O[C@@H]3CC[C@H](NC(=O)Nc4cc(C(C)(C)C)nn4CCO)c4ccccc43)cn12` displayed an IC50 of less than 10 nM. `Cc1ccc(-n2nc(C(C)(C)C)cc2NC(=O)N[C@H]2CC[C@@H](Oc3ccc4nnc([C@]5(CO)CCCN5C)n4c3)c3ccccc32)cc1` came in with an IC50 of less than 10 nM. Next, `Cc1ccc(-n2nc(C(C)(C)C)cc2NC(=O)N[C@H]2CC[C@@H](Oc3ccc4nnc(N5CCN(C)CC5)n4c3)c3ccccc32)cc1`: less than 10 nM; `C[C@H]1CCCCN1c1nnc2ccc(O[C@@H]3CC[C@H](NC(=O)Nc4cc(C(C)(C)C)nn4CCO)c4ccccc43)cn12`: less than 10 nM; `C[C@H]1CCCCN1c1nnc2ccc(O[C@@H]3CC[C@H](NC(=O)Nc4cc(C(C)(C)C)nn4-c4ccc(CN5CCCCC5)cc4)c4ccccc43)cn12`: less than 10 nM.

With `Cc1ccc(-n2nc(C(C)(C)C)cc2NC(=O)N[C@H]2CC[C@@H](Oc3ccc4nnc(N5CCC(CO)CC5)n4c3)c3ccccc32)cc1`, the IC50 was less than 10 nM.

`C[C@@H]1CCC[C@H](C)N1c1nnc2ccc(O[C@@H]3CC[C@H](NC(=O)Nc4cc(C(C)(C)C)nn4-c4cccc(CN5CCCC5)c4)c4ccccc43)cn12`: the IC50 was less than 10 nM. The value for `C[C@@H]1CCC[C@H](C)N1c1nnc2ccc(O[C@@H]3CC[C@H](NC(=O)Nc4cc(F)cc(N5CCOCC5)c4)c4ccccc43)cn12` was less than 10 nM.

The compound `Cc1ccc(-n2nc(C(C)(C)C)cc2NC(=O)N[C@H]2CC[C@@H](Oc3ccc4cnn(CCO)c4c3)c3ccccc32)cc1` displayed an IC50 of less than 10 nM.
